The species named for assay [1] is Rattus norvegicus. Kind of assay: Onset time in minutes, between ingestion and the first noticeable symptoms was determined. In kind it is functional.
For assay [2], the species on record is Rattus norvegicus. The assay is described as follows: Duration of time in hours, after ingestion at which central effects begin to decline was determined. In kind it is functional.
A short description of assay [3]: […] and the effective dose required for the elicitation of the complete psychotomimetic spectrum was determined. The assay is classed as functional.
Assay [4] is filed under the species Rattus norvegicus. The assay is described as follows: […] and the effective dose required for the elicitation of the complete psychotomimetic spectrum was determined; f =Not effective at 50 mg. In kind it is functional, organism-based.

For `COc1cccc2[nH]cc(CCN(C)C(C)C)c12`, the Onset time in assay [1] came to 45 min. This molecule gave a Duration in assay [2] of 2 h. The same molecule showed an Effective dose in assay [3] of 30 mg/kg.

Turning to `COc1cc2[nH]cc(CCN(C)C(C)C)c2cc1OC`, the Effective dose entry in assay [4] was “Not effective at 50mg”.

For the molecule `COc1ccc2[nH]cc(CCN(C)C(C)C)c2c1`, the Onset time in assay [1] is 9 min. Also, the Duration in assay [2] turned out to be 3 h. This molecule gave an Effective dose in assay [3] of 5 mg/kg.

In the case of `CC(C)N(C)CCc1c[nH]c2cccc(O)c12`, the Onset time in assay [1] came out at 20 min. The molecule further had a Duration in assay [2] of 6 h. Further, in assay [3], the Effective dose was determined as 10 mg/kg.

With `CC(C)N(C)CCc1c[nH]c2cc3ooc3cc12`, the Effective dose entry in assay [4] was “Not effective at 50mg”.

With `COc1ccc2c(CCN(C)C(C)C)c[nH]c2c1`, in assay [4], the Effective dose entry was “Not effective at 50mg”.

Regarding `CC(C)N(C)CCc1c[nH]c2ccccc12`, in assay [1], the Onset time is 40 min. The molecule also returned a Duration in assay [2] of 3 h. For the same molecule, the Effective dose in assay [3] came out at 25 mg/kg.

`COc1cccc2c(CCN(C)C(C)C)c[nH]c12`: in assay [4], the Effective dose entry was “Not effective at 50mg”.

These data come from ChEMBL document CHEMBL1123092, “Psychotomimetic N-methyl-N-isopropyltryptamines. Effects of variation of aromatic oxygen substituents” (1985).
